Measured values published in patent EP4603105A1, “PHARMACEUTICAL COMPOSITION CONTAINING CYCLIC COMPOUND HAVING SELECTIVE KRAS INHIBITORY EFFECT AGAINST HRAS AND NRAS” (CHUGAI SEIYAKU KABUSHIKI KAISHA, priority 2022, dated 2024).
Like-named read-outs stand apart in the source and are kept apart here.

Key:
[1] = tested on: human lung cancer strain NCI-H441; assay: NCI-H441 cell proliferation inhibitory activity (CellTiter-Glo, 4 days); type: cell-based; conditions: read-out: NCl-H441 IC50
Summary of the method: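 Step one: dispense the test compound in serial DMSO dilutions. Step three: add the reagent and measure […].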

[2] = target: GDP-bound NRAS wild-type protein (Homo sapiens, UniProt P01111); assay: Binding to NRAS by surface plasmon resonance (SPR), KD and KD ratio to KRAS
Summary of the method: (§1)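 Running buffer contained 10 µM GDP and 10 mM MgCl2 to keep RAS in the GDP state, with 4% DMSO at pH 7.4. Compounds were flowed at 100 µL/min in 75 s steps of rising concentration over captured biotin-Avi RAS at 30°C. Sensorgrams were fitted 1:1 for KD.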

[3] = target: HRAS wild-type protein (Homo sapiens, UniProt P01112); assay: Binding to HRAS by surface plasmon resonance (SPR), KD and KD ratio to KRAS
Summary of the method: as §1

[4] = target: GDP-bound KRAS wild-type protein (Homo sapiens, UniProt P01116); assay: Binding to KRAS by surface plasmon resonance (SPR), dissociation constant KD
Summary of the method: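 Captured GDP-RAS (~100–300 RU) was exposed to increasing compound concentrations, 75 s per step, in running buffer with 10 µM GDP, 10 mM MgCl2 and 4% DMSO at pH 7.4.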

[5] = 50% proliferation inhibitory concentration, four days
[6] = ratio of KD with respect to GDP-bound NRAS wild-type protein to KD with respect to KRAS
[7] = ratio of KD with respect to HRAS wild-type protein to KD with respect to KRAS
[8] = Single Cycle Kinetics, 1:1 binding model
[9] = ratio of KD for GDP-bound NRAS wild-type protein to KD for KRAS
[10] = ratio of KD for HRAS wild-type protein to KD for KRAS

Sequence of GDP-bound KRAS wild-type protein (P01116 1-188 isoform P01116-2): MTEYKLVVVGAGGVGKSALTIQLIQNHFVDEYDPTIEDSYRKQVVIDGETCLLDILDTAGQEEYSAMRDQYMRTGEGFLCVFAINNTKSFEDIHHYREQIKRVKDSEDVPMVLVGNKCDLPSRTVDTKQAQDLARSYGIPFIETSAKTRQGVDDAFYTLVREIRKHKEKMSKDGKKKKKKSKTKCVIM
Sequence of HRAS wild-type protein (P01112 whole entry): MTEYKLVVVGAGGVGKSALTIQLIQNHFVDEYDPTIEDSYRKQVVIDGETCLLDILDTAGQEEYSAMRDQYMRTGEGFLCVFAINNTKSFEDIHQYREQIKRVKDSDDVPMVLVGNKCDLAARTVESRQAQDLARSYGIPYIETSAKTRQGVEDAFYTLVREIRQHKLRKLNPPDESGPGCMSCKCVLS
Sequence of GDP-bound NRAS wild-type protein (P01111 whole entry): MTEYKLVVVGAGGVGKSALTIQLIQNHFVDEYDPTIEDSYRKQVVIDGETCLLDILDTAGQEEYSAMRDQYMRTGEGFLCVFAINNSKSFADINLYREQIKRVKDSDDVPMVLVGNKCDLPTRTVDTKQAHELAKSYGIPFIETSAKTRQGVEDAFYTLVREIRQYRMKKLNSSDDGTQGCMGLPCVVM

| SMILES | IC50 [1, 5] [nM] | NRAS /KRAS [2, 6] | HRAS /KRAS [3, 7] | Kd [4, 8] [nM] | IC50 ([1]; NCI-H441 cells, 4 days) [nM] | NRAS /KRAS [2, 9] | HRAS /KRAS [3, 10] | Kd ([4]; Single Cycle Kinetics) [nM] | Kd ([4]; 1:1 binding model) [nM] |
| --- | --- | --- | --- | --- | --- | --- | --- | --- | --- |
| CCO[C@@H]1C[C@H]2C(=O)NC3(CCC3)C(=O)N(C)[C@@H](C3CCCC3)C(=O)N(C)[C@H](C(=O)N(C)C)CC(=O)N(C)[C@@H](CC3CCCC3)C(=O)N[C@@H]([C@@H](C)CC)C(=O)N(C)CC(=O)N(C)[C@H]3C/C=C\CCN(C3=O)[C@@H](CC3CCC(F)(F)CC3)C(=O)N(C)CC(=O)N[C@@H](CCc3cc(F)c(C(F)(F)F)c(F)c3)C(=O)N2C1 [PP1458] | 18.2 | A (a compound having 10 or more and less than 20 is denoted as A) | A (a compound having 10 or more and less than 20 is denoted as A) | 0.15 | – | – | – | – | – |
| CCO[C@@H]1C[C@H]2C(=O)NC3(CCCC3)C(=O)N(C)[C@@H](C3CCC3)C(=O)N(C)[C@H](C(=O)N(C)C)CC(=O)N(C)[C@@H](CC(C)C)C(=O)N[C@@H]([C@@H](C)CC)C(=O)N(C)CC(=O)N(C)[C@H]3C/C(F)=C\CCN(C3=O)[C@@H](Cc3ccc(C)cc3)C(=O)N(C)CC(=O)N[C@@H](CCc3cc(F)c(C(F)(F)F)c(F)c3)C(=O)N2C1 [PP3517] | – | – | – | – | 55.6 | B (a compound having 3 or more and less than 10 is denoted as B) | B (a compound having 3 or more and less than 10 is denoted as B) | 1.8 | – |
| CCO[C@@H]1C[C@H]2C(=O)NC3(CCC3)C(=O)N(C)[C@@H](C3CCCC3)C(=O)N(C)[C@H](C(=O)N3CCOCC3)CC(=O)N(C)[C@@H](CC)C(=O)N[C@@H]([C@@H](C)CC)C(=O)N3CC[C@H]3C(=O)N(C)[C@H]3CC[C@@H](C)CN(C3=O)[C@@H](Cc3ccc(C(F)(F)F)cc3)C(=O)N(C)CC(=O)N[C@@H](CCc3ccc(C(F)(F)F)c(Cl)c3)C(=O)N2C1 [PP1375] | 11.5 | B (a compound having 3 or more and less than 10 is denoted as B) | B (a compound having 3 or more and less than 10 is denoted as B) | 0.23 | – | – | – | – | – |
| CCC[C@H]1C(=O)N[C@@H]([C@@H](C)CC)C(=O)N(C2CC2)CC(=O)N(C)[C@H]2C/C(F)=C\CCN(C2=O)[C@@H](Cc2ccc(C)cc2)C(=O)N(C)CC(=O)N[C@@H](CCc2ccc(C(F)(F)F)c(OC)c2)C(=O)N2C[C@H](OCC)C[C@H]2C(=O)N(C)C2(CCC2)C(=O)N(C)[C@@H](C2CCCC2)C(=O)N(C)[C@H](C(=O)N(C)C)CC(=O)N1C [PP3525] | – | – | – | – | 3.4 | B (a compound having 3 or more and less than 10 is denoted as B) | B (a compound having 3 or more and less than 10 is denoted as B) | 0.22 | – |
| C#CC[C@H]1C(=O)N[C@@H]([C@@H](C)CC)C(=O)N(C2CC2)CC(=O)N(C)[C@H]2C/C=C\CCN(C2=O)[C@@H](Cc2ccc(C(F)(F)F)cc2)C(=O)N(C)CC(=O)N[C@@H](CCc2ccc(C(F)(F)F)c(OC)c2)C(=O)N2C[C@H](OCC)C[C@H]2C(=O)OC2(CCC2)C(=O)N(C)[C@@H](C2CCCC2)C(=O)N(C)[C@H](C(=O)N(C)C)CC(=O)N1C [PP3372] | – | – | – | – | 16.8 | A (a compound having 10 or more and less than 20 is denoted as A) | B (a compound having 3 or more and less than 10 is denoted as B) | 1.5 | – |
| CCO[C@@H]1C[C@H]2C(=O)NC3(CCC3)C(=O)N(C)[C@@H](C3CCCC3)C(=O)N(C)[C@H](C(=O)N(C)C)CC(=O)N(C)[C@@H](CC(C)C)C(=O)N[C@@H]([C@@H](C)CC)C(=O)N(C)CC(=O)N(C)[C@H]3C/C(F)=C\CCN(C3=O)[C@@H](Cc3ccc(C)cc3)C(=O)N(C)CC(=O)N[C@@H](CCc3cc(F)c(C(F)(F)F)c(F)c3)C(=O)N2C1 [PP3515] | – | – | – | – | 17 | B (a compound having 3 or more and less than 10 is denoted as B) | B (a compound having 3 or more and less than 10 is denoted as B) | 0.28 | – |
| CCO[C@@H]1C[C@H]2C(=O)NC3(CC(C)(C)C3)C(=O)N(C)[C@@H](C3CCCC3)C(=O)N(C)[C@H](C(=O)N(C)CC)CC(=O)N(C)[C@@H]([C@H](C)OC)C(=O)N[C@@H]([C@@H](C)CC)C(=O)N(C)CC(=O)N(C)[C@H]3C/C=C\CCN(C3=O)[C@@H](Cc3ccc(C(F)(F)F)cc3)C(=O)N(C)CC(=O)N[C@@H](CCc3cc(F)c(C(F)(F)F)c(F)c3)C(=O)N2C1 [PP3217] | – | – | – | – | 9.9 | A (a compound having 10 or more and less than 20 is denoted as A) | B (a compound having 3 or more and less than 10 is denoted as B) | 0.18 | – |
| CCC[C@H]1C(=O)N[C@@H](CC(C)C)C(=O)N(C2CC2)CC(=O)N(C)[C@H]2C/C=C\CCN(C2=O)[C@@H](Cc2ccc(C)cc2)C(=O)N(C)CC(=O)N[C@@H](CCc2ccc(C(F)(F)F)c(OC)c2)C(=O)N2C[C@H](OCC)C[C@H]2C(=O)NC2(CCC2)C(=O)N(C)[C@@H](C2CCCC2)C(=O)N(C)[C@H](C(=O)N(C)C)CC(=O)N1C [PP2534] | – | – | – | – | 195 | A (a compound having 10 or more and less than 20 is denoted as A) | B (a compound having 3 or more and less than 10 is denoted as B) | – | 4.1 |
